US10407422B2, “Triazolopyridine inhibitors of myeloperoxidase” (priority 2015, dated 2019)

How the values were obtained:
myeloperoxidase (MPO) [1] = molecular target: T1, myeloperoxidase (MPO) (Homo sapiens (Human), UniProt P05164); test: MPO peroxidation assay (Amplex Red assay); assay type: biochemical; conditions: potency range class
Summary of the method: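 Human MPO at 200 pM with 40 nM H2O2 preincubated 10 min at room temperature with inhibitor in 100 mM KPi pH 7.4. Reaction started with Amplex Red mixture (200 μM Amplex Red, 10 mM H2O2); resorufin fluorescence (Ex 535, Em 590 nm) read kinetically for 15 min. IC50 fitted from slopes over 180-540 s.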

myeloperoxidase (MPO) [2] = molecular target: T1, myeloperoxidase (MPO); test: MPO chlorination assay (APF assay); assay type: biochemical; conditions: potency range class
Description: [formula] where A=minimal Y value (activity level of inhibited sample), B=maximal Y value (activity level of uninhibited sample), C=Log IC50, D=Hill Slope, x=concentration of inhibitor. MPO Chlorination Assay (APF Assay) MPO chlorination activity was measured in 100 mM KPi (pH 7.4) by utilizing the non-fluorescent reagent Aminophenyl fluorescein (APF, Invitrogen Cat. #A36003). APF is cleaved by (—OCl) to yield the fluorescent compound fluorescein. Reactions were carried out in 50 μL total volume by adding a 25 μL mixture of 200 pM myeloperoxidase and 120 mM NaCl to 100 nL inhibitor in 100% DMSO in a 384 well, non-binding surface clear bottom plate (Corning #3655). Enzyme, inhibitor, and chloride were preincubated for ten minutes at room temperature. After the ten minute preincubation, 25 μL of an APF mixture containing […], 120 mM NaCl and 10 μM H2O2 was added to the plate using the internal dispensing system of a Hammatsu FDSS 6000. Kinetic determinations were carried out immediately on the FDSS 6000 (3 minute kinetic read, 1 read every second, ex: 485 nm, em: 535 nm). IC50 values for inhibitors were calculated by taking the slope of the linear portion of the kinetic measurement (20 seconds to ˜80-120 secs). IC50 values were calculated by determining the slope of the linear portion of the kinetic trace […], and using that calculated slope to determine % inhibition occurring at each concentration of inhibitor using the following equation: [formula] where A=minimal Y value (activity level of inhibited sample), B=maximal Y value (activity level of uninhibited sample), C=Log IC50, D=Hill Slope, x=concentration of inhibitor. EPX Bromination Assay

T1 sequence (P05164 49-745): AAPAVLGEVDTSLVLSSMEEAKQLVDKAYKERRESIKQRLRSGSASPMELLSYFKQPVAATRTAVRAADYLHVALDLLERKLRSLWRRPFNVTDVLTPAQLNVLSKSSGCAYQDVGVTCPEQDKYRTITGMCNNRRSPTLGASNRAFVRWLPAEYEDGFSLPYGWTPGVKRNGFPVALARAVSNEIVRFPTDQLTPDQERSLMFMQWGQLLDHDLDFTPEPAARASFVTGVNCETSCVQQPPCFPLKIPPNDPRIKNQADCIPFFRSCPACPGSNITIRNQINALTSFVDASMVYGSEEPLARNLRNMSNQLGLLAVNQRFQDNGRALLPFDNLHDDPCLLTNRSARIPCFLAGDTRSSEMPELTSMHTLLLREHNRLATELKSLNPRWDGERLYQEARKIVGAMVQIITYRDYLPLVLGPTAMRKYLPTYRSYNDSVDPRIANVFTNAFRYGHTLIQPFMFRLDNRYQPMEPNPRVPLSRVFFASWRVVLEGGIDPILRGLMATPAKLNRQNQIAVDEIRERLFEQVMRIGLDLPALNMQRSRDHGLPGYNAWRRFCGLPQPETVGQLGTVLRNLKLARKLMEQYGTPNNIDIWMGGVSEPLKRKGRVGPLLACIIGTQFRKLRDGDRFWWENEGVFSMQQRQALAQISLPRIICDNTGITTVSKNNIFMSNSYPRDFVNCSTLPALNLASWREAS

## Nc1cc(Cc2cnn(Cc3ccc(C(=O)N4CCC(O)C4)cc3)c2)c2nn[nH]c2n1 (stereo not shown) [Example 84, 1-(4-{[4-({5-Amino-3H-[1,2,3]triazolo[4,5-b]pyridin-7-yl}methyl)-1H-pyrazol-1-yl]methyl}benzoyl)pyrrolidin-3-ol]
Myeloperoxidase (MPO) [1]
  IC50: 0.101 to 0.999 µM
Myeloperoxidase (MPO) [2]
  IC50: 0.101 to 0.999 µM

## CN1CCN(C(=O)c2ccc(Cn3cc(Cc4cc(N)nc5[nH]nnc45)cn3)cc2)CC1 [Example 85, 7-[(1-{[4-(4-Methylpiperazine-1-carbonyl)phenyl]methyl}-1H-pyrazol-4-yl)methyl]-3H-[1,2,3]triazolo[4,5-b]pyridin-5-amine]
Myeloperoxidase (MPO) [1]
  IC50: 0.001 to 0.1 µM
Myeloperoxidase (MPO) [2]
  IC50: 0.101 to 0.999 µM

## Nc1cc(Cc2cnn(Cc3ccc(C(=O)NCc4ccncc4)cc3)c2)c2nn[nH]c2n1 [Example 86, 4-{[4-({5-Amino-3H-[1,2,3]triazolo[4,5-b]pyridin-7-yl}methyl)-1H-pyrazol-1-yl]methyl}-N-(pyridin-4-ylmethyl)benzamide]
Myeloperoxidase (MPO) [1]
  IC50: 0.001 to 0.1 µM
Myeloperoxidase (MPO) [2]
  IC50: 0.101 to 0.999 µM

## CC(CO)NC(=O)c1ccc(Cn2cc(Cc3cc(N)nc4[nH]nnc34)cn2)cc1 (stereo not shown) [Example 87, 4-{[4-({5-Amino-3H-[1,2,3]triazolo[4,5-b]pyridin-7-yl}methyl)-1H-pyrazol-1-yl]methyl}-N-(1-hydroxypropan-2-yl)benzamide]
Myeloperoxidase (MPO) [1]
  IC50: 0.001 to 0.1 µM
Myeloperoxidase (MPO) [2]
  IC50: 0.101 to 0.999 µM

## CCCNC(=O)c1ccc(Cn2cc(Cc3cc(N)nc4[nH]nnc34)cn2)cc1 [Example 88, 4-{[4-({5-Amino-3H-[1,2,3]triazolo[4,5-b]pyridin-7-yl}methyl)-1H-pyrazol-1-yl]methyl}-N-propylbenzamide]
Myeloperoxidase (MPO) [1]
  IC50: 0.001 to 0.1 µM
Myeloperoxidase (MPO) [2]
  IC50: 0.101 to 0.999 µM

## CN(C)CCCNC(=O)c1ccc(Cn2cc(Cc3cc(N)nc4[nH]nnc34)cn2)cc1 [Example 89, 4-{[4-({5-Amino-3H-[1,2,3]triazolo[4,5-b]pyridin-7-yl}methyl)-1H-pyrazol-1-yl]methyl}-N-[3-(dimethylamino)propyl]benzamide]
Myeloperoxidase (MPO) [1]
  IC50: 0.001 to 0.1 µM
Myeloperoxidase (MPO) [2]
  IC50: 0.101 to 0.999 µM

## NC(=O)CNC(=O)c1ccc(Cn2cc(Cc3cc(N)nc4[nH]nnc34)cn2)cc1 [Example 90, 2-[(4-{[4-({5-Amino-3H-[1,2,3]triazolo[4,5-b]pyridin-7-yl}methyl)-1H-pyrazol-1-yl]methyl}phenyl)formamido]acetamide]
Myeloperoxidase (MPO) [1]
  IC50: 0.001 to 0.1 µM
Myeloperoxidase (MPO) [2]
  IC50: 0.101 to 0.999 µM

## Cc1cnc(CNC(=O)c2ccc(Cn3cc(Cc4cc(N)nc5[nH]nnc45)cn3)cc2)cn1 [Example 91, 4-{[4-({5-Amino-3H-[1,2,3]triazolo[4,5-b]pyridin-7-yl}methyl)-1H-pyrazol-1-yl]methyl}-N-[(5-methylpyrazin-2-yl)methyl]benzamide]
Myeloperoxidase (MPO) [1]
  IC50: 0.001 to 0.1 µM
Myeloperoxidase (MPO) [2]
  IC50: 0.101 to 0.999 µM

## Nc1cc(Cc2cnn(Cc3ccc(C(=O)NCc4cnco4)cc3)c2)c2nn[nH]c2n1 [Example 92, 4-{[4-({5-Amino-3H-[1,2,3]triazolo[4,5-b]pyridin-7-yl}methyl)-1H-pyrazol-1-yl]methyl}-N-(1,3-oxazol-5-ylmethyl)benzamide]
Myeloperoxidase (MPO) [1]
  IC50: 0.101 to 0.999 µM
Myeloperoxidase (MPO) [2]
  IC50: 1 to 10 µM

## Nc1cc(Cc2cnn(Cc3ccc(C(=O)NCc4cncnc4)cc3)c2)c2nn[nH]c2n1 [Example 93, 4-{[4-({5-Amino-3H-[1,2,3]triazolo[4,5-b]pyridin-7-yl}methyl)-1H-pyrazol-1-yl]methyl}-N-(pyrimidin-5-ylmethyl)benzamide]
Myeloperoxidase (MPO) [1]
  IC50: 0.001 to 0.1 µM
Myeloperoxidase (MPO) [2]
  IC50: 0.101 to 0.999 µM

## Nc1cc(Cc2cnn(Cc3ccc(C(=O)NCc4ccc(=O)[nH]c4)cc3)c2)c2nn[nH]c2n1 [Example 94, 4-{[4-({5-Amino-3H-[1,2,3]triazolo[4,5-b]pyridin-7-yl}methyl)-1H-pyrazol-1-yl]methyl}-N-[(6-oxo-1,6-dihydropyridin-3-yl)methyl]benzamide]
Myeloperoxidase (MPO) [1]
  IC50: 0.001 to 0.1 µM
Myeloperoxidase (MPO) [2]
  IC50: 0.101 to 0.999 µM

## Cc1nnc(C(C)NC(=O)c2ccc(Cn3cc(Cc4cc(N)nc5[nH]nnc45)cn3)cc2)[nH]1 (stereo not shown) [Example 95, 4-{[4-({5-Amino-3H-[1,2,3]triazolo[4,5-b]pyridin-7-yl}methyl)-1H-pyrazol-1-yl]methyl}-N-[1-(5-methyl-4H-1,2,4-triazol-3-yl)ethyl]benzamide]
Myeloperoxidase (MPO) [1]
  IC50: 0.101 to 0.999 µM
Myeloperoxidase (MPO) [2]
  IC50: 0.101 to 0.999 µM

## Nc1cc(Cc2cnn(Cc3ccc(C(=O)N4CCOCC4)cc3)c2)c2nn[nH]c2n1 [Example 96, 7-[(1-{[4-(Morpholine-4-carbonyl)phenyl]methyl}-1H-pyrazol-4-yl)methyl]-3H-[1,2,3]triazolo[4,5-b]pyridin-5-amine]
Myeloperoxidase (MPO) [1]
  IC50: 0.001 to 0.1 µM
Myeloperoxidase (MPO) [2]
  IC50: 0.101 to 0.999 µM

## COc1cccc(Cn2cc(Cc3cc(N)nc4[nH]nnc34)cn2)c1 [Example 97, 7-((1-(3-Methoxybenzyl)-1H-pyrazol-4-yl)methyl)-3H-[1,2,3]triazolo[4,5-b]pyridin-5-amine]
Myeloperoxidase (MPO) [1]
  IC50: 0.001 to 0.1 µM
Myeloperoxidase (MPO) [2]
  IC50: 0.001 to 0.1 µM

## Nc1cc(Cc2cnn(Cc3cccc(OC4CC4)c3)c2)c2nn[nH]c2n1 [Example 98, 7-((1-(3-Cyclopropoxybenzyl)-1H-pyrazol-4-yl)methyl)-3H-[1,2,3]triazolo[4,5-b]pyridin-5-amine]
Myeloperoxidase (MPO) [1]
  IC50: 0.001 to 0.1 µM
Myeloperoxidase (MPO) [2]
  IC50: 0.001 to 0.1 µM

## Nc1cc(Cc2cnn(Cc3cccc(OCc4ccccc4)c3)c2)c2nn[nH]c2n1 [Example 99, 7-((1-(3-(Benzyloxy)benzyl)-1H-pyrazol-4-yl)methyl)-3H-[1,2,3]triazolo[4,5-b]pyridin-5-amine]
Myeloperoxidase (MPO) [1]
  IC50: 0.001 to 0.1 µM
Myeloperoxidase (MPO) [2]
  IC50: 0.001 to 0.1 µM

## Cn1ccc(-c2cccc(Cn3cc(Cc4cc(N)nc5[nH]nnc45)cn3)c2)n1 [Example 100, 7-((1-(3-(1-Methyl-1H-pyrazol-3-yl)benzyl)-1H-pyrazol-4-yl)methyl)-3H-[1,2,3]triazolo[4,5-b]pyridin-5-amine]
Myeloperoxidase (MPO) [1]
  IC50: 0.001 to 0.1 µM
Myeloperoxidase (MPO) [2]
  IC50: 0.001 to 0.1 µM

## Nc1cc(Cc2cnn(Cc3cccc(Br)c3)c2)c2nn[nH]c2n1 [Example 101, 7-((1-(3-Bromobenzyl)-1H-pyrazol-4-yl)methyl)-3H-[1,2,3]triazolo[4,5-b]pyridin-5-amine]
Myeloperoxidase (MPO) [1]
  IC50: 0.001 to 0.1 µM
Myeloperoxidase (MPO) [2]
  IC50: 0.001 to 0.1 µM

## Nc1cc(Cc2cnn(Cc3cccnc3)c2)c2nn[nH]c2n1 [Example 102, 7-((1-(Pyridin-3-ylmethyl)-1H-pyrazol-4-yl)methyl)-3H-[1,2,3]triazolo[4,5-b]pyridin-5-amine]
Myeloperoxidase (MPO) [1]
  IC50: 0.001 to 0.1 µM
Myeloperoxidase (MPO) [2]
  IC50: 0.101 to 0.999 µM

## Nc1cc(Cc2cnn(Cc3ccc(C(F)(F)F)cc3)c2)c2nn[nH]c2n1 [Example 103, 7-((1-(4-(Trifluoromethyl)benzyl)-1H-pyrazol-4-yl)methyl)-3H-[1,2,3]triazolo[4,5-b]pyridin-5-amine]
Myeloperoxidase (MPO) [1]
  IC50: 0.101 to 0.999 µM
Myeloperoxidase (MPO) [2]
  IC50: 0.101 to 0.999 µM

## Nc1cc(Cc2cnn(Cc3ccc(OC(F)F)cc3)c2)c2nn[nH]c2n1 [Example 104, 7-((1-(4-(Difluoromethoxy)benzyl)-1H-pyrazol-4-yl)methyl)-3H-[1,2,3]triazolo[4,5-b]pyridin-5-amine]
Myeloperoxidase (MPO) [1]
  IC50: 0.001 to 0.1 µM
Myeloperoxidase (MPO) [2]
  IC50: 0.101 to 0.999 µM

## COc1ccc(-c2ccc(Cn3cc(Cc4cc(N)nc5[nH]nnc45)cn3)cc2)cn1 [Example 105, 7-((1-(4-(6-Methoxypyridin-3-yl)benzyl)-1H-pyrazol-4-yl)methyl)-3H-[1,2,3]triazolo[4,5-b]pyridin-5-amine]
Myeloperoxidase (MPO) [1]
  IC50: 0.101 to 0.999 µM
Myeloperoxidase (MPO) [2]
  IC50: 0.101 to 0.999 µM

## Nc1cc(Cc2cnn(Cc3cccc(Oc4ccccc4)c3)c2)c2nn[nH]c2n1 [Example 106, 7-((1-(3-Phenoxybenzyl)-1H-pyrazol-4-yl)methyl)-3H-[1,2,3]triazolo[4,5-b]pyridin-5-amine]
Myeloperoxidase (MPO) [1]
  IC50: 0.001 to 0.1 µM
Myeloperoxidase (MPO) [2]
  IC50: 0.001 to 0.1 µM
